Experiments:
Experiment in all cases: Receptor panel, Study 1
Type in all cases: binding
[1] = target: MC4 (h) (Homo sapiens, UniProt P32245)
Protocol: (§1) RESULTS AND DISCUSSION—Selectivity—The compound of Formula (III) was evaluated in three selectivity panels to assess the potential for off-target pharmacology (Table 8). […] The kinase off-target profile of The compound of Formula (III) was assessed in a full human wild-type panel using radiometric kinase activity assays (KinaseProfiler™ and IC50Profiler™; Eurofins Scientific) (Table 9; FIG. 23). The compound of Formula (III) inhibited 4/278 kinases >50% at 1 micromolar, identifying BTK and the three other kinases having analogous Cys residues with the potential for covalent inhibition (BMX, TEC, BLK). […]. The cellular kinase selectivity of The compound of Formula (III) was established in native Ramos B cell kinome assays (KiNativ™; ActivX) confirmed BTK as the primary target with inhibition of BLK and TEC inhibition detected (Table 10).

[2] = target: 5-HT Transporter (h) (Homo sapiens, UniProt P31645)
Protocol: as §1

[3] = target: CCR1 (h) (Homo sapiens, UniProt P32246)
Sequence of CCR1 (h) (P32246 whole entry): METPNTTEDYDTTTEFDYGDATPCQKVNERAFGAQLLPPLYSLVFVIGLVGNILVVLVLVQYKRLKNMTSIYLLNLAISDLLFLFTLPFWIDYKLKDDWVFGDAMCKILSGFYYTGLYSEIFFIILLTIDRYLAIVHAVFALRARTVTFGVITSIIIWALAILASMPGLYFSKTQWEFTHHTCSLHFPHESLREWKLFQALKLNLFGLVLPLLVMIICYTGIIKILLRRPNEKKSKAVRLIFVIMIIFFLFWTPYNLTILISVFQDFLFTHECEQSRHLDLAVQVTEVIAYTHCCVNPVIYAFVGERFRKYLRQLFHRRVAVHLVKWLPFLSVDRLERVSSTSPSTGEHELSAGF
Protocol: as §1

[4] = test system: BZD (central)
Protocol: as §1

[5] = test system: sst (non-selective)
Protocol: as §1

[6] = target: H2 (h) (Homo sapiens, UniProt P25021)
Sequence of H2 (h) (P25021 whole entry): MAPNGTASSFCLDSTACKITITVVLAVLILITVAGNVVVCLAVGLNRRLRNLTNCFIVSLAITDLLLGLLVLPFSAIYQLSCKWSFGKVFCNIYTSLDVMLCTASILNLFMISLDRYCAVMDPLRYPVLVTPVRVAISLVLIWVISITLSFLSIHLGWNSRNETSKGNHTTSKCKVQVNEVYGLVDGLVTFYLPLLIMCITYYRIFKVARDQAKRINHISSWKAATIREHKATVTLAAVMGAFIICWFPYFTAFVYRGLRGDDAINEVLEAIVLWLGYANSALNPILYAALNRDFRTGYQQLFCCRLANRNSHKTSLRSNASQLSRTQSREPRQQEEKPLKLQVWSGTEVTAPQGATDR
Protocol: as §1

[7] = test system: K^+V channel
Protocol: as §1

[8] = target: Vla(h) (Homo sapiens, UniProt P37288)
Sequence of Vla(h) (P37288 whole entry): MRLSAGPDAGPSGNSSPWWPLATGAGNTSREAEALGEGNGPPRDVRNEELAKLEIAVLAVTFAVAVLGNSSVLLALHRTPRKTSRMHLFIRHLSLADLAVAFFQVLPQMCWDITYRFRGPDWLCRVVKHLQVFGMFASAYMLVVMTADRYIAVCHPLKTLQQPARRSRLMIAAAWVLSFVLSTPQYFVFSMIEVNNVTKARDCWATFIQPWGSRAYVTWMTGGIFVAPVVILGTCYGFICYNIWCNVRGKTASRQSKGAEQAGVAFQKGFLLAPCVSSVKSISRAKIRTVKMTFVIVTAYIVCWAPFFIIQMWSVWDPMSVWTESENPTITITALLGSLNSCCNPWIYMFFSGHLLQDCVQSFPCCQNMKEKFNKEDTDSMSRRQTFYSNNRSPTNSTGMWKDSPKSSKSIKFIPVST
Protocol: as §1

[9] = test system: Cl^− channel
Protocol: as §1

[10] = target: mu (h) (MOP) (Homo sapiens, UniProt P35372)
Sequence of mu (h) (MOP) (P35372 whole entry): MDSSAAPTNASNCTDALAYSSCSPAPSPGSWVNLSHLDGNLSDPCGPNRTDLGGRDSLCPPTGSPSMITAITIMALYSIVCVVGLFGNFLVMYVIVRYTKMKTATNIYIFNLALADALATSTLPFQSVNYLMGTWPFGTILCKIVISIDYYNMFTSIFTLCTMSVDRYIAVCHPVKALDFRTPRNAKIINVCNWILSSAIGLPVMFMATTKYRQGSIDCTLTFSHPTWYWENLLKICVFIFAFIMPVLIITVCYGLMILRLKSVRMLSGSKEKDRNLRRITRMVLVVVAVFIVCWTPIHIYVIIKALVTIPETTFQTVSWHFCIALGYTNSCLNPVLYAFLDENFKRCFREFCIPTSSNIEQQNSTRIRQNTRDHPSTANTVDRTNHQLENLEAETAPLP
Protocol: as §1

[11] = test system: SK^+Ca channel
Protocol: as §1

[12] = target: NE transporter (h) (Homo sapiens, UniProt P23975)
Sequence of NE transporter (h) (P23975 whole entry): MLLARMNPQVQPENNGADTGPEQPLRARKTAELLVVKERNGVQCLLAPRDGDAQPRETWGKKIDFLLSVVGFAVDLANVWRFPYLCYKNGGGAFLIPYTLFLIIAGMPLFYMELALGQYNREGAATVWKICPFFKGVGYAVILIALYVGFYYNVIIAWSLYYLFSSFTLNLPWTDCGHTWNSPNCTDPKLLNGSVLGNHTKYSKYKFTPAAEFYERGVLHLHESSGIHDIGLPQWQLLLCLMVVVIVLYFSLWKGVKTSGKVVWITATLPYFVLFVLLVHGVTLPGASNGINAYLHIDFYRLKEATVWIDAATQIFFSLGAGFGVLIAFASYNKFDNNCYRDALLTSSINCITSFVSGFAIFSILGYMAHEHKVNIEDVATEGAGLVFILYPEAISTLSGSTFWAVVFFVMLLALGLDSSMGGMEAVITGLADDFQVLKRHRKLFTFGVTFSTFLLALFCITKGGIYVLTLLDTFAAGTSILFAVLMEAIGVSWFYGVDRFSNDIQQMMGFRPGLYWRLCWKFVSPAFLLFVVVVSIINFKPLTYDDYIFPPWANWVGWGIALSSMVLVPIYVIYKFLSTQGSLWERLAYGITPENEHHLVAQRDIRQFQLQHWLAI
Protocol: as §1

[13] = target: M1 (h) (Homo sapiens, UniProt P11229)
Protocol: as §1

[14] = target: beta 1 (h) (Homo sapiens, UniProt P08588)
Protocol: as §1

[15] = test system: Ca^2+ channel
Protocol: as §1

[16] = target: 5-HT3 (h) (Homo sapiens, UniProt P46098)
Protocol: as §1

[17] = test system: alpha 1
Protocol: as §1

[18] = target: 5-HT2A (h) (Homo sapiens, UniProt P28223)
Protocol: as §1

[19] = target: A3 (h) (Homo sapiens, UniProt P0DMS8)
Sequence of A3 (h) (P0DMS8 whole entry): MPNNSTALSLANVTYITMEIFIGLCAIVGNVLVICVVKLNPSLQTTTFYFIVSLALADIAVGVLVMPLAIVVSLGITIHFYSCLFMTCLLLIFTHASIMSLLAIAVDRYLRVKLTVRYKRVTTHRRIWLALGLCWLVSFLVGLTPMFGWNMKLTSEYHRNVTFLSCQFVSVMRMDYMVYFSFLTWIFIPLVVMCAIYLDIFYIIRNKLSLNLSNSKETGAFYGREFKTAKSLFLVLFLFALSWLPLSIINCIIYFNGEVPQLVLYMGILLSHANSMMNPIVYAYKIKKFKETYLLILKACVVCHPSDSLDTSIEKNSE
Protocol: as §1

[20] = target: AT1 (h) (Homo sapiens, UniProt P30556)
Protocol: as §1

[21] = target: 5-HT7 (h) (Homo sapiens, UniProt P34969)
Protocol: as §1

[22] = target: CCKA (h) (CCK1) (Homo sapiens, UniProt P32238)
Sequence of CCKA (h) (CCK1) (P32238 whole entry): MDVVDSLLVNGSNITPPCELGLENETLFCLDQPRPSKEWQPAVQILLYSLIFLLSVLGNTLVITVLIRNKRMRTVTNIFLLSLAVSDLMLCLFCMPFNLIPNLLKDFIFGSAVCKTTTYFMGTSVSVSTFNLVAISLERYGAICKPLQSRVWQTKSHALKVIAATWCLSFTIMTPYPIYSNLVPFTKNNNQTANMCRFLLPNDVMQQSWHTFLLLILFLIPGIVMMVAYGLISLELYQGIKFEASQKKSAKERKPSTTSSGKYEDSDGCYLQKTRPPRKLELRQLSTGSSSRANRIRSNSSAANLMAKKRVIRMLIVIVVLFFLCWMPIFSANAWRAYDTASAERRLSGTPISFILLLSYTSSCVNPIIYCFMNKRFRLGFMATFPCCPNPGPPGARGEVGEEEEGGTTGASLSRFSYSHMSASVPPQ
Protocol: as §1

[23] = test system: Na^+ channel (site 2)
Protocol: as §1

[24] = target: ORL1 (h) (NOP) (Homo sapiens, UniProt P41146)
Protocol: as §1

[25] = target: ETA (h) (Homo sapiens, UniProt P25101)
Protocol: as §1

[26] = target: VIP1 (h) (VPAC1) (Homo sapiens, UniProt P32241)
Protocol: as §1

[27] = target: Y1 (h) (Homo sapiens, UniProt P25929)
Protocol: as §1

[28] = target: B2 (h) (Homo sapiens, UniProt P30411)
Protocol: as §1

[29] = target: NK2 (h) (Homo sapiens, UniProt P21452)
Protocol: as §1

[30] = target: NK3 (h) (Homo sapiens, UniProt P29371)
Sequence of NK3 (h) (P29371 whole entry): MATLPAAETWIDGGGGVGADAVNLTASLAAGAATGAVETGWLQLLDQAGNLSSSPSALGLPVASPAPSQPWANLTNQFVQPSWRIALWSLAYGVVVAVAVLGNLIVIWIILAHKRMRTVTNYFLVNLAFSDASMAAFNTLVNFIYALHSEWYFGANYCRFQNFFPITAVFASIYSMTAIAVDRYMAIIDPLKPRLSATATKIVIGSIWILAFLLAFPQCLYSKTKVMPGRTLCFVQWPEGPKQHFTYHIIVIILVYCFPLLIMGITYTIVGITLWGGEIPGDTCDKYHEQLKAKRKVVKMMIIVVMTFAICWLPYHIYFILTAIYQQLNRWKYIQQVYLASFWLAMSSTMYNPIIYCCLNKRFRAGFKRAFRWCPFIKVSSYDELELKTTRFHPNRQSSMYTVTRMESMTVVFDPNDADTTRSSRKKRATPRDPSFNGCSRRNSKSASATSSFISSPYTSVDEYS
Protocol: as §1

[31] = target: Y2 (h) (Homo sapiens, UniProt P49146)
Protocol: as §1

[32] = target: A1 (h) (Homo sapiens, UniProt P30542)
Sequence of A1 (h) (P30542 whole entry): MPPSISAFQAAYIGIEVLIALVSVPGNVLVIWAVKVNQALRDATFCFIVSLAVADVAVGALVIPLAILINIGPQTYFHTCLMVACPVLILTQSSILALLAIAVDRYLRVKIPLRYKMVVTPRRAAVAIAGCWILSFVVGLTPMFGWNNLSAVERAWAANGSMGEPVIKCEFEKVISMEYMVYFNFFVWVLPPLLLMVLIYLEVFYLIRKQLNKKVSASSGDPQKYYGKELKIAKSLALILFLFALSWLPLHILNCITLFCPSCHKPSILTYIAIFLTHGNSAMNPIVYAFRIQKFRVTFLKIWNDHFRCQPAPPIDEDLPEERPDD
Protocol: as §1

[33] = test system: GABA
Protocol: as §1

[34] = test system: alpha 2
Protocol: as §1

[35] = target: M2 (h) (Homo sapiens, UniProt P08172)
Sequence of M2 (h) (P08172 whole entry): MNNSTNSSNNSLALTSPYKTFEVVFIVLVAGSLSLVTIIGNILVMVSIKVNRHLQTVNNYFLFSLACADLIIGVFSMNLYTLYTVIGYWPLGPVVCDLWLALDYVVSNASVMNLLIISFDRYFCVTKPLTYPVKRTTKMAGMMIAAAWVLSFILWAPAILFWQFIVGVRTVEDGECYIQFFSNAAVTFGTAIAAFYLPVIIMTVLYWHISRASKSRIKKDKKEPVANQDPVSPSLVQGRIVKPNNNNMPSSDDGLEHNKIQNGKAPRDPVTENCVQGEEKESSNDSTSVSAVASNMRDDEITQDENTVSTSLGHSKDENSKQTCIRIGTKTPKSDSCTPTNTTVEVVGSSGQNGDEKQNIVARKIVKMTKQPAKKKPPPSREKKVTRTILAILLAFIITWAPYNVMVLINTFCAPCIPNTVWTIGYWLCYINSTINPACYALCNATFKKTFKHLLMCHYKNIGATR
Protocol: as §1

[36] = target: M3 (h) (Homo sapiens, UniProt P20309)
Protocol: as §1

[37] = target: 5-HT5A (h) (Homo sapiens, UniProt P47898)
Protocol: as §1

[38] = target: 5-HT1B (Rattus norvegicus, UniProt P28564)
Protocol: as §1

[39] = target: DA transporter (h) (Homo sapiens, UniProt Q01959)
Protocol: as §1

[40] = target: GAL2 (h) (Homo sapiens, UniProt O43603)
Sequence of GAL2 (h) (O43603 whole entry): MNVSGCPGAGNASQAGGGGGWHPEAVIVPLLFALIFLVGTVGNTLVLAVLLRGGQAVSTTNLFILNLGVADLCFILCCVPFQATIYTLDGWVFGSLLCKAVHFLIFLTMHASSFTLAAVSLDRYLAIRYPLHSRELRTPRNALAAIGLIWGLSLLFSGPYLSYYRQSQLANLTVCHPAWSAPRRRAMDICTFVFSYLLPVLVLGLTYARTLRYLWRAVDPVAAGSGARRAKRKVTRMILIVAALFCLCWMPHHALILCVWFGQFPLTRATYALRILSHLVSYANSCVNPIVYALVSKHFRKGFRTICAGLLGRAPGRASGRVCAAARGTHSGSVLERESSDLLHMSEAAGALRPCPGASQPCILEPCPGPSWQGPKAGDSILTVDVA
Protocol: as §1

Sequence of MC4 (h) (P32245 whole entry): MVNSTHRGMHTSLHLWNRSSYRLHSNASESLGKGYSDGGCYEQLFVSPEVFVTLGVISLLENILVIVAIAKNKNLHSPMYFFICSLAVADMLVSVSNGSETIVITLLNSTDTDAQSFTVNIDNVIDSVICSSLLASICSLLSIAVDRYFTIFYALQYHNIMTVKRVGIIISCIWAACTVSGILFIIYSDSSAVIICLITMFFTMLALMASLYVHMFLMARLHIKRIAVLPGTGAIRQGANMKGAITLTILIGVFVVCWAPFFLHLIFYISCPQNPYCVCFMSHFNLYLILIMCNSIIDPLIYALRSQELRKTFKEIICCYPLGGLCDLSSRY

C=CC(=O)N[C@H]1CCC[C@H]1NC(=O)c1sc2nccc3c2c1NC(=O)N3c1cnc(CC(C)C)cc1C (atropisomer, axis not shown) [compound of Formula (III), N-((1R,2S)-2-Acrylamidocyclopentyl)-5-(S)-(6-isobutyl-4-methylpyridin-3-yl)-4-oxo-4,5-dihydro-3H-1-thia-3,5,8-triazaacenaphthylene-2-carboxamide]
inhibition at 10 µM [1]: < 10% | inhibition at 10 µM [2]: < 10% | inhibition at 10 µM [3]: < 10% | % Inhibition at 10 μM [4]: — (no inhibition observed) | % Inhibition at 10 μM [5]: — (no inhibition observed) | inhibition at 10 µM [6]: < 10% | % Inhibition at 10 μM [7]: 12.2% | inhibition at 10 µM [8]: < 10% | % Inhibition at 10 μM [9]: 25.1% | inhibition at 10 µM [10]: < 10% | % Inhibition at 10 μM [11]: — (no inhibition observed) | inhibition at 10 µM [12]: < 10% | inhibition at 10 µM [13]: < 10% | inhibition at 10 µM [14]: < 10% | % Inhibition at 10 μM [15]: — (no inhibition observed) | inhibition at 10 µM [16]: < 10% | % Inhibition at 10 μM [17]: — (no inhibition observed) | inhibition at 10 µM [18]: < 10% | inhibition at 10 µM [19]: < 10% | inhibition at 10 µM [20]: < 10% | inhibition at 10 µM [21]: < 10% | inhibition at 10 µM [22]: 23.7% | % Inhibition at 10 μM [23]: — (no inhibition observed) | inhibition at 10 µM [24]: 14.6% | inhibition at 10 µM [25]: < 10% | inhibition at 10 µM [26]: < 10% | inhibition at 10 µM [27]: 44.4% | inhibition at 10 µM [28]: < 10% | inhibition at 10 µM [29]: 16% | inhibition at 10 µM [30]: 38.9% | inhibition at 10 µM [31]: < 10% | inhibition at 10 µM [32]: < 10% | % Inhibition at 10 μM [33]: — (no inhibition observed) | % Inhibition at 10 μM [34]: — (no inhibition observed) | inhibition at 10 µM [35]: < 10% | inhibition at 10 µM [36]: < 10% | inhibition at 10 µM [37]: < 10% | inhibition at 10 µM [38]: < 10% | inhibition at 10 µM [39]: < 10% | inhibition at 10 µM [40]: < 10%

Reference: patent US12622910B2, “Inhibitors of Bruton's tyrosine kinase and methods of their use” (Janssen Pharmaceutica NV, priority 2021, dated 2026)
